Source: patent US9833497B2, “Human originated EGF domain proteins and use of the same” (CHENGDU SOURCEBIO LIMITED-LIABILITY COMPANY, priority 2013, dated 2017)

What was measured:
Assay type in all cases: cell-based
[1] = test system: E. coli DH5α; assay: Antibacterial activity: MIC and growth curve against E. coli DH5α in 96-well plate; details: minimal inhibitory concentration against E. coli DH5α; 96-well plate, 5×10^5 CFU/mL, 37° C., judged after 8 h
How it was run: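 MIC taken as lowest protein level with no bacterial growth, tracked by A600 every 30 min during 37 °C, 175 rpm culture. Two-fold protein series 50-12.5 μg/mL final, triplicate wells, against 5×10^5 CFU/mL of LB-washed mid-log cells.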

[2] = test system: E. coli BL21; assay: MIC against Gram-negative bacteria: E. coli BL21
How it was run: (§1)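 Purified recombinant human EGF domain proteins are tested by broth dilution in LB against a 5×10^5 CFU/mL inoculum, with two-fold serial dilutions run in triplicate. Plates are incubated at 37° C with shaking, and the MIC is read as the lowest protein concentration without growth.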

[3] = test system: Proteus vulgaris; assay: MIC against Gram-negative bacteria: Proteus vulgaris
How it was run: as §1

[4] = test system: Enterobacter cloacae; assay: MIC against Gram-negative bacteria: Enterobacter cloacae
How it was run: as §1

[5] = test system: Proteus mirabilis; assay: MIC against Gram-negative bacteria: Proteus mirabilis
How it was run: as §1

[6] = test system: Citrobacter diversus; assay: MIC against Gram-negative bacteria: Citrobacter diversus
How it was run: as §1

[7] = test system: Aeromonas hydrophila; assay: MIC against Gram-negative bacteria: Aeromonas hydrophila
How it was run: as §1

[8] = test system: Pseudomonas aeruginosa; assay: MIC against Gram-negative bacteria: Pseudomonas aeruginosa
How it was run: as §1

[9] = test system: Klebsiella pneumonia; assay: MIC against Gram-negative bacteria: Klebsiella pneumonia
How it was run: as §1

[10] = test system: Moraxella catarrhalis; assay: MIC against Gram-negative bacteria: Moraxella catarrhalis
How it was run: as §1

[11] = test system: Serratia marcescens; assay: MIC against Gram-negative bacteria: Serratia marcescens
How it was run: as §1

[12] = 10 h cultivation at 37° C., 5×10^5 CFU/mL, two-fold serial dilution
[13] = 96-well plate, 5×10^5 CFU/mL, 37° C., 10 h

## PRT1069 (VTNPCDRKKCEWLCLLSPSGPVCTCPNGKRLDNGTCV; listed as Homo sapiens)
[1]
  MIC: 12.5 µg/mL
[2]; [12]
  MIC E. coli BL21: 50 µg/mL
[3]; [12]
  MIC P. vulgaris: 25 µg/mL
[4]; [12]
  MIC E. cloacae: 50 µg/mL
[5]; [12]
  MIC P. mirabilis: 12.5 µg/mL
[6]; [12]
  MIC C. diversus: 50 µg/mL
[7]; [12]
  MIC A. hydrophila: 12.5 µg/mL
[8]; [12]
  MIC P. aeruginosa: 12.5 µg/mL
[9]; [12]
  MIC K. pneumonia: 25 µg/mL
[10]; [12]
  MIC M. catarrhalis: 25 µg/mL
[11]; [12]
  MIC S. marcescens: 25 µg/mL

## PRT655 (DVDECATTDPCVGGHCVNTEGSFNCLCETGFQPSPESGECV; listed as Homo sapiens)
[1]
  MIC: 25 µg/mL
[2]; [13]
  MIC E. coli BL21: 50 µg/mL
[3]; [13]
  MIC P. vulgaris: 12.5 µg/mL
[4]; [13]
  MIC E. cloacae: 50 µg/mL
[5]; [13]
  MIC P. mirabilis: 25 µg/mL
[6]; [13]
  MIC C. diversus: 12.5 µg/mL
[7]; [13]
  MIC A. hydrophila: 25 µg/mL
[8]; [13]
  MIC P. aeruginosa: 12.5 µg/mL
[9]; [13]
  MIC K. pneumonia: 25 µg/mL
[10]; [13]
  MIC M. catarrhalis: 50 µg/mL
[11]; [13]
  MIC S. marcescens: 25 µg/mL

## PRT175 (CEHAPCHNGATCHERGHRYVCECARGYGGPNC; listed as Homo sapiens)
[1]
  MIC: 12.5 µg/mL
[2]; E. coli BL21, 10 h cultivation at 37° C., 5×10^5 CFU/mL
  MIC (μg/mL) E. coli BL21: 12.5 µg/mL
[3]; P. vulgaris, 10 h cultivation at 37° C., 5×10^5 CFU/mL
  MIC (μg/mL) P. vulgaris: 25 µg/mL
[4]; E. cloacae, 10 h cultivation at 37° C., 5×10^5 CFU/mL
  MIC (μg/mL) E. cloacae: 12.5 µg/mL
[5]; P. mirabilis, 10 h cultivation at 37° C., 5×10^5 CFU/mL
  MIC (μg/mL) P. mirabilis: 12.5 µg/mL
[6]; C. diversus, 10 h cultivation at 37° C., 5×10^5 CFU/mL
  MIC (μg/mL) C. diversus: 12.5 µg/mL
[7]; A. hydrophila, 10 h cultivation at 37° C., 5×10^5 CFU/mL
  MIC (μg/mL) A. hydrophila: 25 µg/mL
[8]; P. aeruginosa, 10 h cultivation at 37° C., 5×10^5 CFU/mL
  MIC (μg/mL) P. aeruginosa: 12.5 µg/mL
[9]; K. pneumonia, 10 h cultivation at 37° C., 5×10^5 CFU/mL
  MIC (μg/mL) K. pneumonia: 12.5 µg/mL
[10]; M. catarrhalis, 10 h cultivation at 37° C., 5×10^5 CFU/mL
  MIC (μg/mL) M. catarrhalis: 25 µg/mL
[11]; S. marcescens, 10 h cultivation at 37° C., 5×10^5 CFU/mL
  MIC (μg/mL) S. marcescens: 12.5 µg/mL

## PRT658 (DVNECELMLAVCGAALCENVEGSFLCLCASDLEEYDAQEGHCR; listed as Homo sapiens)
[1]
  MIC: 12.5 µg/mL
[2]; [13]
  MIC E. coli BL21: 25 µg/mL
[3]; [13]
  MIC P. vulgaris: 50 µg/mL
[4]; [13]
  MIC E. cloacae: 12.5 µg/mL
[5]; [13]
  MIC P. mirabilis: 25 µg/mL
[6]; [13]
  MIC C. diversus: 50 µg/mL
[7]; [13]
  MIC A. hydrophila: 25 µg/mL
[8]; [13]
  MIC P. aeruginosa: 50 µg/mL
[9]; [13]
  MIC K. pneumonia: 25 µg/mL
[10]; [13]
  MIC M. catarrhalis: 12.5 µg/mL
[11]; [13]
  MIC S. marcescens: 12.5 µg/mL

## PRT453 (DINECEQFGTCPQHCRNTKGSYECVCADGFT; listed as Homo sapiens)
[1]
  MIC: 25 µg/mL
[2]; [13]
  MIC against E. coli BL21: 12.5 µg/mL
[3]; [13]
  MIC against P. vulgaris: 12.5 µg/mL
[4]; [13]
  MIC against E. cloacae: 25 µg/mL
[5]; [13]
  MIC against P. mirabilis: 25 µg/mL
[6]; [13]
  MIC against C. diversus: 25 µg/mL
[7]; [13]
  MIC against A. hydrophila: 12.5 µg/mL
[8]; [13]
  MIC against P. aeruginosa: 25 µg/mL
[9]; [13]
  MIC against K. pneumonia: 50 µg/mL
[10]; [13]
  MIC against M. catarrhalis: 50 µg/mL
[11]; [13]
  MIC against S. marcescens: 25 µg/mL

## PRT1015 (DVNECFQDPGPCPKGTSCHNTLGSFQCLCPVGQEGPRCE; listed as Homo sapiens)
[1]
  MIC: 12.5 µg/mL
[2]; E. coli BL21, 10 h cultivation at 37° C.
  MIC: 50 µg/mL
[3]; P. vulgaris, 10 h cultivation at 37° C.
  MIC: 12.5 µg/mL
[4]; E. cloacae, 10 h cultivation at 37° C.
  MIC: 12.5 µg/mL
[5]; P. mirabilis, 10 h cultivation at 37° C.
  MIC: 50 µg/mL
[6]; C. diversus, 10 h cultivation at 37° C.
  MIC: 50 µg/mL
[7]; A. hydrophila, 10 h cultivation at 37° C.
  MIC: 25 µg/mL
[8]; P. aeruginosa, 10 h cultivation at 37° C.
  MIC: 12.5 µg/mL
[9]; K. pneumonia, 10 h cultivation at 37° C.
  MIC: 50 µg/mL
[10]; M. catarrhalis, 10 h cultivation at 37° C.
  MIC: 12.5 µg/mL
[11]; S. marcescens, 10 h cultivation at 37° C.
  MIC: 50 µg/mL
